# Laboratory results from patent USRE48461E1, “Modulation of androgen receptor expression” (Ionis Pharmaceuticals, Inc., priority 2012, dated 2021).
# Tests used:
# Format in all cases: cell-based, human
# LMR20 cells = experiment: Proliferation of MDV3100-resistant LMR20 cells (MTT; with R1881 or DHT); conditions: 5 days
# In short: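 Cells were held in phenol red-free medium with charcoal-stripped FBS and given antisense oligonucleotides plus 1 nM R1881 or 10 nM DHT from day 1. Proliferation was read by MTT after 5 days of treatment and reported as percent inhibition against non-treated cells.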
# TMPRSS2 mRNA = TMPRSS2 mRNA levels in LMR20 cells; conditions: for TMPRSS2 mRNA levels (% baseline value) after treatment with DHT / TMPRSS2 mRNA levels (% baseline value) after treatment with R1881 / TMPRSS2 mRNA levels (% baseline value) of cells without AR agonist treatment: LMR20 cells; for TMPRSS2 mRNA levels (% baseline value) after treatment with DHT: DHT 10 nM 72 hrs; for TMPRSS2 mRNA levels (% baseline value) after treatment with R1881: R1881 10 nM 72 hrs; for TMPRSS2 mRNA levels (% baseline value) of cells without AR agonist treatment: no AR agonist
# Experimental: LMR20 cells were plated at 1,500 cells per well in phenol red-free medium with CSS.
# PSA mRNA [1] = experiment: PSA expression in C4-2 cells; conditions: 48 hrs; for Percent inhibition of PSA expression: C4-2 cells, CSS + DHT medium
# Experimental: Cells were plated at 1,000 cells per well. […] After an incubation period of 48 hrs, RNA levels of AR, PSA and TMPRSS2 were measured.
# Cells were plated at 2,000 cells per well and cultured in CSS media with 1 nM DHT. […] After an incubation period of 48 hrs, RNA levels of AR, PSA and TMPRSS2 were measured.
# AR mRNA = experiment: AR RNA expression in C4-2B cells (complete, CSS+DHT medium; Example 30); conditions: 48 hrs
# Experimental: Cells were plated at 1,000 cells per well. […] ISIS 549148 was included as a negative control. […] After an incubation period of 48 hrs, RNA levels of AR, PSA and TMPRSS2 were measured.
# Cells were plated at 2,000 cells per well and cultured in CSS media with 1 nM DHT. […] ISIS 549148 was included as a negative control. […] After an incubation period of 48 hrs, RNA levels of AR, PSA and TMPRSS2 were measured. In the absence of DHT, AR expression in C4-2 cells was 188%, PSA expression was 43% and TMPRSS2 expression was 27% compared to the untreated control.
# C4-2B cells = experiment: C4-2B cell proliferation (complete or CSS+DHT medium; Example 30); conditions: 5 days; for Proliferation (% untreated control): C4-2B cells
# Experimental: After a treatment period of 5 days in complete medium or CSS+1 nM DHT medium, the proliferative capacity of the cancer cells was measured with using CellTiter 96® AQueous One or CellTiter-Glo® Solution Cell Proliferation kit (Promega), following the manufacturer's instructions.
# PSA mRNA [2] = experiment: PSA expression in 22RV1 cells; conditions: 48 hrs
# Experimental: Cells were plated at 1,000 cells per well. […] After an incubation period of 48 hrs, RNA levels of full length AR, the V7 variant, PSA and TMPRSS2 were measured.
# After an incubation period of 48 hrs, RNA levels of full length AR, the V7 variant, PSA and TMPRSS2 were measured.
# Cells were plated at 2,000 cells per well and cultured in CSS media for 16 hours. […] After 4 hrs, 1 nM DHT was added. […] After an incubation period of 48 hrs, RNA levels of AR, AR V7 variant, PSA and TMPRSS2 were measured.
# 22RV1 cells = experiment: 22RV1 cell proliferation (Example 32); conditions: 5 days
# Experimental: After a treatment period of 5 days in complete medium, the proliferative capacity of the cancer cells was measured with using CellTiter 96® AQueous One or CellTiter-Glo® Solution Cell Proliferation kit (Promega), following the manufacturer's instructions. […] Treatment with ISIS oligonucleotides in CSS+DHT medium reduced the proliferative capacity to a greater extent than treatment with MVD-3100. The proliferative capacity of cells cultured in CSS medium without DHT is 12% of untreated control levels.
compound,measurement,setting,value
"CNC(=O)c1ccc(N2C(=S)N(c3ccc(C#N)c(C(F)(F)F)c3)C(=O)C2(C)C)cc1F [MDV3100, 4-(3-(4-cyano-3-(trifluoromethyl)phenyl)-5,5-dimethyl-4-oxo-2-thioxoimidazolidin-1-yl)-2-fluoro-N-methylbenzamide, reference compound]",Percent inhibition of LMR20 cell proliferation,"LMR20 cells; CSS + DHT, ASO 0.04 μM",0%
same,Percent inhibition of LMR20 cell proliferation,"LMR20 cells; CSS + DHT, ASO 0.20 μM",1%
same,Percent inhibition of LMR20 cell proliferation,"LMR20 cells; CSS + DHT, ASO 1.0 μM",13%
same,Percent inhibition of LMR20 cell proliferation,"LMR20 cells; CSS + DHT, ASO 5.0 μM",41%
same,Percent inhibition of LMR20 cell proliferation,"LMR20 cells; CSS + R1881, ASO 0.04 μM",0%
same,Percent inhibition of LMR20 cell proliferation,"LMR20 cells; CSS + R1881, ASO 0.20 μM",5%
same,Percent inhibition of LMR20 cell proliferation,"LMR20 cells; CSS + R1881, ASO 1.0 μM",31%
same,Percent inhibition of LMR20 cell proliferation,"LMR20 cells; CSS + R1881, ASO 5.0 μM",67%
same,Percent inhibition of LMR20 cell proliferation,"LMR20 cells; CSS, ASO 0.04 μM",0%
same,Percent inhibition of LMR20 cell proliferation,"LMR20 cells; CSS, ASO 0.20 μM",5%
same,Percent inhibition of LMR20 cell proliferation,"LMR20 cells; CSS, ASO 1.0 μM",0%
same,Percent inhibition of LMR20 cell proliferation,"LMR20 cells; CSS, ASO 5.0 μM",11%
same,TMPRSS2 mRNA levels (% baseline value) after treatment with DHT,TMPRSS2 mRNA; ASO 0.04 μM,134 % baseline value
same,TMPRSS2 mRNA levels (% baseline value) after treatment with DHT,TMPRSS2 mRNA; ASO 0.20 μM,144 % baseline value
same,TMPRSS2 mRNA levels (% baseline value) after treatment with DHT,TMPRSS2 mRNA; ASO 1.0 μM,132 % baseline value
same,TMPRSS2 mRNA levels (% baseline value) after treatment with DHT,TMPRSS2 mRNA; ASO 5.0 μM,124 % baseline value
same,TMPRSS2 mRNA levels (% baseline value) after treatment with R1881,TMPRSS2 mRNA; ASO 0.20 μM,125 % baseline value
same,TMPRSS2 mRNA levels (% baseline value) after treatment with R1881,TMPRSS2 mRNA; ASO 1.0 μM,133 % baseline value
same,TMPRSS2 mRNA levels (% baseline value) after treatment with R1881,TMPRSS2 mRNA; ASO 5.0 μM,139 % baseline value
same,TMPRSS2 mRNA levels (% baseline value) of cells without AR agonist treatment,TMPRSS2 mRNA; ASO 0.04 μM,101 % baseline value
same,TMPRSS2 mRNA levels (% baseline value) of cells without AR agonist treatment,TMPRSS2 mRNA; ASO 0.20 μM,119 % baseline value
same,TMPRSS2 mRNA levels (% baseline value) of cells without AR agonist treatment,TMPRSS2 mRNA; ASO 1.0 μM,119 % baseline value
same,TMPRSS2 mRNA levels (% baseline value) of cells without AR agonist treatment,TMPRSS2 mRNA; ASO 5.0 μM,141 % baseline value
same,TMPRSS2 mRNA levels in LMR20 cells,TMPRSS2 mRNA; with or without DHT/R1881,did not reduce either PSA or TMPRSS2 mRNA levels
same,Percent inhibition of PSA expression,PSA mRNA [1]; 0.04 μM,9%
same,Percent inhibition of PSA expression,PSA mRNA [1]; 0.2 μM,8%
same,Percent inhibition of PSA expression,PSA mRNA [1]; 1 μM,51%
same,Percent inhibition of PSA expression,PSA mRNA [1]; 5.0 μM,73%
same,Percent inhibition of PSA expression in C4-2 cells cultured in complete medium,PSA mRNA [1]; 0.04 μM,28%
same,Percent inhibition of PSA expression in C4-2 cells cultured in complete medium,PSA mRNA [1]; 0.2 μM,40%
same,Percent inhibition of PSA expression in C4-2 cells cultured in complete medium,PSA mRNA [1]; 1 μM,72%
same,Percent inhibition of PSA expression in C4-2 cells cultured in complete medium,PSA mRNA [1]; 5.0 μM,89%
same,Percent expression of AR,"AR mRNA; CSS + DHT medium, 0.04 μM",112%
same,Percent expression of AR,"AR mRNA; CSS + DHT medium, 0.2 μM",144%
same,Percent expression of AR,"AR mRNA; CSS + DHT medium, 1 μM",165%
same,Percent expression of AR,"AR mRNA; CSS + DHT medium, 5.0 μM",173%
same,AR expression,AR mRNA; CSS+DHT medium,increased AR expression in the cells
same,Percent expression of AR,"AR mRNA; complete medium, 0.04 μM",108%
same,Percent expression of AR,"AR mRNA; complete medium, 0.2 μM",121%
same,Percent expression of AR,"AR mRNA; complete medium, 1 μM",157%
same,Percent expression of AR,"AR mRNA; complete medium, 5.0 μM",182%
same,AR expression,AR mRNA; complete medium,increased AR expression in the cells
same,Proliferation (% untreated control),"C4-2B cells; CSS + DHT medium, 0.04 μM",125 % untreated control
same,Proliferation (% untreated control),"C4-2B cells; CSS + DHT medium, 0.2 μM",100 % untreated control
same,Proliferation (% untreated control),"C4-2B cells; CSS + DHT medium, 1 μM",83 % untreated control
same,Proliferation (% untreated control),"C4-2B cells; CSS + DHT medium, 5.0 μM",17 % untreated control
same,Proliferation (% untreated control),"C4-2B cells; complete medium, 0.04 μM",131 % untreated control
same,Proliferation (% untreated control),"C4-2B cells; complete medium, 0.2 μM",105 % untreated control
same,Proliferation (% untreated control),"C4-2B cells; complete medium, 1 μM",72 % untreated control
same,Proliferation (% untreated control),"C4-2B cells; complete medium, 5.0 μM",60 % untreated control
same,proliferation of C4-2B cells,C4-2B cells; complete medium or CSS+1 nM DHT,reduced proliferation of the cells in a dose dependent compared to the control
same,"Percent of gene expression, PSA","PSA mRNA [2]; CSS + DHT medium, 0.04 μM",15%
same,"Percent of gene expression, PSA","PSA mRNA [2]; CSS + DHT medium, 0.2 μM",19%
same,"Percent of gene expression, PSA","PSA mRNA [2]; CSS + DHT medium, 1.0 μM",18%
same,"Percent of gene expression, PSA","PSA mRNA [2]; CSS + DHT medium, 5.0 μM",16%
same,"Percent of gene expression, PSA","PSA mRNA [2]; complete medium, 0.04 μM",83%
same,"Percent of gene expression, PSA","PSA mRNA [2]; complete medium, 0.2 μM",70%
same,"Percent of gene expression, PSA","PSA mRNA [2]; complete medium, 1.0 μM",71%
same,"Percent of gene expression, PSA","PSA mRNA [2]; complete medium, 5.0 μM",86%
same,Proliferation (% untreated control) in 22RV1 cells treated with MDV-3100,22RV1 cells; 0.04 μM,87%
same,Proliferation (% untreated control) in 22RV1 cells treated with MDV-3100,22RV1 cells; 0.2 μM,83%
same,Proliferation (% untreated control) in 22RV1 cells treated with MDV-3100,22RV1 cells; 1.0 μM,81%
same,Proliferation (% untreated control) in 22RV1 cells treated with MDV-3100,22RV1 cells; 5.0 μM,74%
same,proliferation of 22RV1 cells,22RV1 cells,reduced proliferation of the cells in a dose dependent compared to the control
